Results published in patent publication US5821330A, “Peptide having inflammation affinity and radioactive diagnostic containing the same” (Nihon Medi-Physics Co., Ltd., priority 1993, dated 1998).
Where “and” joins values, the source holds several entries; their conditions need not be identical. Identical values can stand only once. Ends that are not written are not given here. Peptide text beside a SMILES is read from it. * marks the point of attachment. Acm = CC(=O)NC*

Tests used:
[1] = Safety of the peptides: bolus tail vein administration to rat, observation until five days, dissection; assay type: in vivo; conditions: for abnormality in tissue checked with the naked eye (hemostatis, pigmentation, discoloration): dissection five days after 8.3 μg per 1.0 g of rat; for abnormality in tissue checked with the naked eye (hemostatis, pigmentation, discoloration) / extreme change in weight, i.e., weight gain or loss: tail vein; for symptoms such as slobber, vomiting, ocular proptosis, and behavioral abnormality: just after bolus tail vein administration, 8.3 μg per 1.0 g of rat; for extreme change in weight, i.e., weight gain or loss: until five days after 8.3 μg per 1.0 g of rat
Protocol: Assuming that clinical dosage to human is 1.0 mg/60 kg, bolus administration of Peptide-1, Peptide 4 and Peptide-5 in an amount of 8.3 μg per 1.0 g of rat and physiological saline as control were made respectively to the tail vein of the rat. Immediately after the administration, behavior of the rat was observed. The observation was continued until five days later; zero minute, ten minutes, three hours, six hours, one day, two days, three days, four days, and five days later. Just after the peptide administration, symptoms such as slobber, vomiting, ocular proptosis, and behavioral abnormality were not observed. Furthermore, extreme change in weight, i.e., weight gain or loss was not observed until five days later. After weighing five days later, the rats were dissected. Abnormality in tissue was checked with the naked eye; abnormality in any tissue was not noted such as hemostatis, pigmentation, or discoloration. These gave estimation that more than 1,000 times administration of the assumed clinical dosage would be safe.

[2] = system: inflammation site of inflammation model rats; assay: Imaging of inflammation sites using indium-111 labeled peptide (turpentine oil inflammation model rats, gamma camera); assay type: in vivo, Sparague-Davley Rats; conditions: 3.7-7.4 MBq tail vein, mean ± standard error, three rats
Protocol: Peptide-1-DTPA obtained in EXAMPLE 8, in an amount of 100 through 200 nmol was adjusted to pH 5.7 in a 0.1M citrate buffer solution, and then 37 to 74 MBq of indium (^111 In) chloride was added thereto. After agitation, the solution was left as such for 15 minutes. A part of the solution was taken and checked for the labeling percentage by electrophoresis. The radiochemical purity of the target compound was 98%. Peptide-3-Sulfo-SMCC-CHI-DTPA obtained in EXAMPLE 10 was also labeled with In-111 in the same way as above, and the radiochemical purity of the target compound was 90%.
(§1) To the right femoral part of Sparague-Davley Rats weighing about 220 g, 100 μl of turpentine oil was subcutaneously administered. After 24 hours, when inflammation was clearly observed, Ravonal anesthesia was applied; then, Peptide-1-DTPA-indium-111 and Peptide-3-Sulfo-SMCC-CHI-DTPA-indium-111 obtained in EXAMPLE 14 were respectively administered in an amount of 3.7 MBq-7.4 MBq to the respective tail vein. Images were obtained with gamma camera one, three, and six hours later. A site of interest was set on the image, where the ratio ([T]/[B] ratio) of total counts for the inflammation site [T] to total counts for the corresponding normal site of the opposite leg [B] was determined. The [T]/[B] ratio, one hour after the administration, was 2.63 for Peptide-1-DTPA-indium-111 and 2.09 for Peptide-3-DTPA-indium-111, whereby the focal site was evidently imaged.

[3] = system: focal region of model rats with infectious disease (Staphylococcus aureus); assay: Imaging of rat model with infectious disease (Staphylococcus aureus) using technetium-99m labeled peptide; assay type: in vivo, Sparague-Davely Rats; conditions: 37-74 MBq tail vein, mean ± standard error
Protocol: In 1.0 mL of physiological saline, 10^8 of viable microbe cells of Staphylococcus aureus were suspended. An aliquot of 100 μl was administered intramuscularly to the right femoral region of Sparague-Davely Rats weighing about 220 g. After 24 hours, Ravonal anesthesia was applied to the model rats that had clearly evident inflammation; then, 37-74 MBq of technetium-99m labeled Peptide-6 obtained in […] was administered to the tail vein. Images were obtained with gamma camera one, three, and six hours later respectively. A site of interest was set on the image, and the [T]/[B] ratio was determined.

[4] = system: inflammation site of inflammatory model rats; assay: Imaging of inflammation sites using technetium-99m labeled peptide (turpentine oil inflammation model rats, gamma camera); assay type: in vivo, Sparague-Davley Rats; conditions: 37-74 MBq tail vein, mean ± standard error, three rats
Protocol: An amount of 240-300 nmol of Peptide-2 obtained in EXAMPLE 2 was taken into each vial, and a volume of a 0.1M phosphate buffer solution (pH 8.0) was added thereto to adjust the whole […] Atmosphere in the vial was replaced with argon; then 180-300 nmol of dithiothreitol was added thereto, The mixture was then allowed to react for one hour at room temperature. Next, 120 nmol of stannous chloride and 740-1110 MBq of sodium pertechnetate were added. The mixture was left for one hour under gentle agitation. Peptide-2 labeled with technetium-99m was yielded. Peptide labeled had radiochemical purity not less than 90%.
Experiments were made for all the peptides those prepared in EXAMPLEs 4, 5, 6 and 7. Each of the peptides was taken, in an amount of 0.2-1.0 μmol, into a vial respectively, and a volume of a 0.1M phosphate buffer solution (pH 8.0) was added thereto to adjust the whole volume to 500 μl. Atmosphere in the respective vial was replaced with argon. To each vial, 500 μl of 1.5-2.2 GBq/ml glucoheptanate labeled with technetium-99m yielded in EXAMPLE 16 was added and quickly agitated. Thereafter, the mixture was allowed to react for 20 minutes in a boiling water bath. Labeling percentage of all the experimented peptides after cooling was 90-95% according to TLC.
as §1
After Ravonal anesthesia was applied to the model rats described in EXAMPLE 18, 37-74 MBq of technetium-99m labeled Peptide-2 obtained in EXAMPLE 15, Peptide-4, Peptide-5, Peptide-6 and Peptide-7 obtained in EXAMPLE 17 were each administered to the respective tail vein. Images were obtained with gamma camera 30 minutes and one, three, and six hours later respectively. A site of interest was set on the image and the [T]/[B] ratio was determined. The [T]/[B] ratio, one hour after the administration, was 3.35 for Peptide-2, 4.98 for Peptide-6, 3.36 for Peptide-7, 4.27 for Peptide-4 and 4.41 for Peptide-5 whereby the focal site was evidently imaged.

[5] = assumed clinical dosage to human 1.0 mg/60 kg, estimate from rat observation

Row | Compound | abnormality in tissue checked with the naked eye (hemostatis, pigmentation, discoloration) [1] | symptoms such as slobber, vomiting, ocular proptosis, and behavioral abnormality [1] | extreme change in weight, i.e., weight gain or loss [1] | [T]/[B] ratio of Tc-99m labeled peptide in inflammatory model rats ([4]; 1 hr. after administration) | [T]/[B] ratio of Tc-99m labeled peptide in inflammatory model rats ([4]; 3 hrs. after administration) | [T]/[B] ratio of Tc-99m labeled peptide in inflammatory model rats ([4]; 6 hrs. after administration) | other results
1 | CC(C)C[C@H](NC(=O)[C@H](CC(C)C)NC(=O)[C@H](CCC(=O)O)NC(=O)[C@@H]1CCCN1C(=O)CNC(=O)CNC(=O)[C@@H](N)CCCCN)C(=O)NCC(=O)NCC(=O)N1CCC[C@H]1C(=O)N[C@@H](CO)C(=O)N[C@H](C(=O)O)C(C)C [Peptide-1, KGGPELLGGPSV] (H-KGGPELLGGPSV-OH) | not noted | not observed | not observed |  |  |  | estimated safe administration relative to the assumed clinical dosage ([1]; rat, in vivo): more than 1,000 times
2 | CC(C)C[C@H](NC(=O)[C@@H](N)CC(C)C)C(=O)NCC(=O)NCC(=O)N1CCC[C@H]1C(=O)N[C@@H](CO)C(=O)N[C@H](C(=O)N[C@@H](CS)C(=O)O)C(C)C [Peptide-3, LLGGPSVC] (H-LLGGPSVC-OH) |  |  |  |  |  |  | [T]/[B] ratio of In-111 labeled peptides in inflammation model rats ([2]; 1 hr. after administration, inflammation site vs opposite normal leg): 2.09 ± 0.18; [T]/[B] ratio of In-111 labeled peptides in inflammation model rats ([2]; 3 hrs. after administration): 2.46 ± 0.29; [T]/[B] ratio of In-111 labeled peptides in inflammation model rats ([2]; 6 hrs. after administration): 2.78 ± 0.15
3 | (PELLGGPSV)×4 in parallel (K)×2 in parallel (KGGC(Acm)GC(Acm)) (PELLGGPSVPELLGGPSVPELLGGPSVPELLGGPSVKKKGGC(Acm)GC(Acm); also: branched Lys scaffold carrying four PELLGGPSV arms) [Peptide-6] |  |  |  | 4.98 and 4.98 ± 0.23 | 4.61 ± 0.49 | 3.20 ± 0.39 | [T]/[B] ratio of Tc-99m labeled peptide in model rats with infectious disease ([3]; 1 hr. after administration, S. aureus intramuscular, right femoral region): 1.92 and 1.92 ± 0.10; [T]/[B] ratio of Tc-99m labeled peptide in model rats with infectious disease ([3]; 3 hrs. after administration, S. aureus model): 1.58 ± 0.05; [T]/[B] ratio of Tc-99m labeled peptide in model rats with infectious disease ([3]; 6 hrs. after administration, S. aureus model): 1.52 ± 0.17
4 | C(Acm) GC(Acm)GGGKEYKAKVSNKALPAPIEKTISK (C(Acm)GC(Acm)GGGKEYKAKVSNKALPAPIEKTISK; also: technetium-99m label) [Peptide-4] | not noted | not observed | not observed | 4.27 and 4.27 ± 0.26 | 3.10 ± 0.20 |  | [T]/[B] ratio of Tc-99m labeled peptide in inflammatory model rats ([4]; 30 mins after administration): 2.47 ± 0.17; estimated safe administration relative to the assumed clinical dosage [1, 5]: more than 1,000 times
5 | C(Acm)GC(Acm)GGKTKPREQQYNSTYRVV (also: technetium-99m label) [Peptide-5] | not noted | not observed | not observed | 4.41 and 4.41 ± 0.62 | 3.85 ± 0.63 |  | [T]/[B] ratio of Tc-99m labeled peptide in inflammatory model rats ([4]; 30 mins after administration): 2.61 ± 0.08; estimated safe administration relative to the assumed clinical dosage [1, 5]: more than 1,000 times
6 | C(Acm)GC(Acm)GG[(PELLGGPSV)×3 repeats in tandem]A (C(Acm)GC(Acm)GGPELLGGPSVPELLGGPSVPELLGGPSVA; also: technetium-99m label) [Peptide-7] |  |  |  | 3.36 and 3.36 ± 0.31 | 2.18 ± 0.39 | 2.26 ± 0.20 | 
7 | CGCGGLLGGPSV (cysteine pairing not given here; also: technetium-99m label) [Peptide-2] |  |  |  | 3.35 and 3.35 ± 0.33 | 2.78 ± 0.23 | 2.82 ± 0.17 | 
